Results on three molecules are retold here after patent US11548885B2, “NLRX1 ligands” (Landos Biopharma, Inc., priority 2020, dated 2023).

For assay [1], the system named is mice challenged with MOG emulsion. The experiment in a line: MOG35-55 induced experimental autoimmune encephalomyelitis model. In kind it is in vivo, C57BL6 mice. The following applies: oral 20 mg/kg daily.
Assay [2] deals with CD4+ T cells. Description: Immunological screening in vitro in CD4+ T cells (flow cytometry of TNFα+ and IFNγ+ cells). Conditions: 50 nanomolar, 24 h; for production of TNFα / TNF+ CD4+ T cells: anti-CD3/CD28, PMA and ionomycin last 6 h. Type of assay: cell-based, C57BL/6 mice. An excerpt:
Cell culture. Spleens were excised from C57BL/6 mice. Spleens were crushed between the frosted ends of microscope slides and filtered to provide a cellular suspension. Red blood cells were lysed through hypotonic lysis. Remaining cells were washed and filtered. CD4+ T cells were enriched within the suspension using magnetic sorting based negative selection. Cells were collected and plated within 96 well plates coated with anti-CD3/CD28 and cultured in the presence of NX-64-2, NX-64-3, NX-64-4, NX-64-5, or NX-64-9 at 0 or 50 nanomolar for 24 h. During the last 6 h of culture, cells were stimulated with phorbol 12-myristate-13-acetate (PMA) and ionomycin.
Immunological analysis. Cells were collected from 96 well plates and stained with a cocktail of antibodies for immunophenotyping by flow cytometry. Culture supernatant was collected and assayed for cytokine concentrations by cytometric bead array. Data was captured on a BD FACS Celesta and analyzed using FACSDiva.
A general note: A flow cytometer gives signals particle by particle.

In assay [3] the test system is OVA-induced model. Description: OVA-induced model of experimental asthma. Type of assay: in vivo, C57BL6 mice. The following applies: oral 20 mg/kg daily days 14-17, day 18, flow cytometry. How it is done:
OVA-induced model. C57BL6 mice were immunized with 10 μg of ovalbumin (OVA) in aluminum hydroxide gel by intraperitoneal injection on day 0 and 7 of the experiment. Mice were then exposed to OVA (8% w/v) by aerosolization for 25 minutes daily between days 14 and 17. Treatment with NX-64-3 (20 mg/kg) or vehicle control occurred daily between days 14 and 17 by oral gavage. Dosage was calculated based off mean body weights. Immunological analysis. Lungs were collected on day 18. Lung tissue was minced and digested in RPMI supplemented with FBS, HEPES, and calcium chloride containing 300 U/mL collagenase and 50 U/mL DNase for 45 minutes at 37° C. After filtration, red blood cells were lysed. Cells were labeled with mixtures of extracellular (CD45, CD3, CD4, CD8, MHCII, CD11b, CD11c, SiglecF, Ly6C) and intracellular (IL10) antibodies in a sequential live staining in 96-well plates in preparation for flow cytometry. Data was captured on a BD FACS Celesta and analyzed using FACSDiva.

The test system of assay [4] is mice challenged with DSS. Description: DSS model of colitis (acute model of IBD). The following applies: oral 20 mg/kg once daily. Type of assay: in vivo. Here is the method:
DSS model. Mice were given DSS in drinking water for seven days to induce disruption of the epithelial layer. At project initiation, mice were 8 weeks of age and began dosing 24 hours after being placed on DSS. Mice were weighed and scored daily for symptoms of disease (diarrhea, rectal bleeding, rectal inflammation, overall behavior). NX-64-3 was prepared within a 0.5% methylcellulose (12-15 cP) solution. Dosage used was 20 mg/kg delivered once daily. Dosage was calculated based off mean body weights for each gender. Oral dosage was delivered by orogastric gavage of dosage in 0.2 mL volume. Flow Cytometry. Colons were collected into RPMI/FBS buffer containing collagenase (300 U/mL) and DNase (50 U/mL) for digestion. Tissues were digested for 60 minutes under stirring at 37° C. Resultant cellular suspensions were filtered through 100 μm strainers, centrifuged (300×g, 8 min), and washed in fresh RPMI. Following filtration of the resulting single cell suspensions, immune cells were purified by Percoll gradient of cell-containing 40% Percoll overlayed onto 70% Percoll solution. After centrifugation, interphase was collected and washed to obtain enriched colonic lamina propria cell fractions. Cells were labeled with mixtures of extracellular (CD45, CD3, CD4, CD8, CD19, NK1.1, F4/80, CD11b, Gr1) antibodies in a sequential live staining in 96-well plates. […]

The mark [5] stands for this setting: day 18, RNA normalized to beta-actin.

Consider `O=c1nc(Cc2nc(C3=CCCCO3)no2)[nH]c2ccc(-c3ccc(O)nc3)cc12` [NX-64-3, 2-((3-(3,4-dihydro-2H-pyran-6-yl)-1,2,4-oxadiazol-5-yl)methyl)-6-(6-hydroxypyridin-3-yl)quinazolin-4(1H)-one], for which the “recovery from neurological deficiencies” value in assay [1] is listed as “accelerated”. In addition, in assay [1] (setting [5]), the “expression of II1b in spinal cord” value is on record as “reduced” and the “expression of Tnf in spinal cord” value is “reduced”. Also, in assay [1] (scored 0-4 daily), the disease activity index result was “reduced”. In assay [2], the “production of TNFα / TNF+ CD4+ T cells” value is recorded as “significant reduction”. Also, the “production of IFNγ / IFNγ+ CD4+ T cells, in words” value in assay [2] (relative to vehicle control) is “greatest magnitude of response”. Also, in assay [3], the “percentage of IL10+CD4+ T cells within the lung” value is “increased” and the “percentage of eosinophils within the lung” value is listed as “reduced”. Also, the “severity of macroscopic lesions (colon)” value in assay [4] (7 days of DSS) was “decreased”. In addition, the “presence of neutrophils in the colonic lamina propria” value in assay [4] (day 7, flow cytometry) is “decreased”.
As to `Cn1cc(-c2ccc3[nH]c(Cc4nc(C5=CCCCO5)no4)nc(=O)c3c2)cn1` [NX-64-4, 2-((3-(3,4-dihydro-2H-pyran-6-yl)-1,2,4-oxadiazol-5-yl)methyl)-6-(1-methyl-1H-pyrazol-4-yl)quinazolin-4(1H)-one], the “production of TNFα / TNF+ CD4+ T cells” value in assay [2] is on record as “significant reduction”.
Same read-out and setting: the result for `Cn1cc(-c2ccc3[nH]c(Cc4nc(-c5cc(=O)cc[nH]5)no4)nc(=O)c3c2)cn1` [NX-64-9, 2-((3-(4-oxo-1H-pyridin-2-yl)-1,2,4-oxadiazol-5-yl)methyl)-6-(1-methyl-1H-pyrazol-4-yl)quinazolin-4(1H)-one] reads “significant reduction”.
